13 compounds from ChEMBL document CHEMBL1135906 (J Med Chem, 2002) can be followed below.

Molecules are shown by their SMILES. Some results are limits rather than exact numbers.

For experiment [1], the target named is T1, Prostaglandin G/H synthase 2 (Homo sapiens, UniProt P35354).
T1 sequence (P35354 whole entry): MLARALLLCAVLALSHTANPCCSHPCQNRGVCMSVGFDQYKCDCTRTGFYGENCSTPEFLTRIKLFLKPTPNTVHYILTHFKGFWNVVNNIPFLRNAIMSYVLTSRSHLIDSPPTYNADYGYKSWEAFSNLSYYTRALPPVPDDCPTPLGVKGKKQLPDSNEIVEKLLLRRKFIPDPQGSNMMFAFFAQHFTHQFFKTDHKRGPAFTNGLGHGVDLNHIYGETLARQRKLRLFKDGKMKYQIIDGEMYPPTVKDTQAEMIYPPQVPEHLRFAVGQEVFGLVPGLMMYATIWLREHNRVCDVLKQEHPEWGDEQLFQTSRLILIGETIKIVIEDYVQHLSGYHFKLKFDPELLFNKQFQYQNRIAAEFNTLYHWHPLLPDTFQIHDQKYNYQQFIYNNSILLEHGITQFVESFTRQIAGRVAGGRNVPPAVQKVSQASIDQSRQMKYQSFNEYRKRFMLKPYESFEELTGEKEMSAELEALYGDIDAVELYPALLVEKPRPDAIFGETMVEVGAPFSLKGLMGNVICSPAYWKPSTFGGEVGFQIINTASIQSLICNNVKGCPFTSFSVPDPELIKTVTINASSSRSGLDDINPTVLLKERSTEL
As to the kind of experiment: Inhibition of human purified Prostaglandin G/H synthase 2.

For experiment [2], the target named is Prostaglandin G/H synthase 1 (Homo sapiens, UniProt P23219). Put plainly: Inhibition of human purified Prostaglandin G/H synthase 1.
The test system of experiment [3] is Rattus norvegicus. Put plainly: The compound was tested in vivo for activity against carrageenan induced paw edema in rat after peroral administration. In kind it is functional. The conditions noted are these: po.
In experiment [4] the test system is Rattus norvegicus. Put plainly: The compound was tested in vivo for gastric ulcerogenic activity in rat after peroral administration. In kind it is functional, Stomach.
For experiment [5], the species on record is Rattus norvegicus. As to the kind of experiment: animal or person. The conditions noted are these: po.
Description: The compound was tested in vivo for activity against adjuvant-induced arthritis in rat after peroral administration after peroral administration
Experiment [6] relates to Rattus norvegicus. As to the kind of experiment: The compound was tested in vivo for activity against adjuvant-induced arthritis in rat after peroral administration. Type of experiment: functional. The conditions noted are these: po.
Experiment [7] deals with Rattus norvegicus. Put plainly: The compound was tested in vivo for activity against yeast -induced hyperalgesia in rat after peroral administration. Particulars: po. Type of experiment: functional.
The subject of experiment [8] is Rattus norvegicus. Put plainly: The compound was tested in vivo for activity against yeast -induced hyperthermia in rat after peroral administration. Type of experiment: functional. The conditions noted are these: po.
The subject of experiment [9] is Rattus norvegicus. As to the kind of experiment: The effective dose in vivo for activity against carrageenan induced paw edema in rat after administering perorally. In kind it is functional. For orientation: The carrageenan paw model is a standard test of acute inflammation.
The test system of experiment [10] is Rattus norvegicus. As to the kind of experiment: Under dose in vivo for activity against carrageenan induced paw edema in rat after administering perorally. In kind it is functional.

Prostaglandin G/H synthase 1, sequence (P23219 whole entry): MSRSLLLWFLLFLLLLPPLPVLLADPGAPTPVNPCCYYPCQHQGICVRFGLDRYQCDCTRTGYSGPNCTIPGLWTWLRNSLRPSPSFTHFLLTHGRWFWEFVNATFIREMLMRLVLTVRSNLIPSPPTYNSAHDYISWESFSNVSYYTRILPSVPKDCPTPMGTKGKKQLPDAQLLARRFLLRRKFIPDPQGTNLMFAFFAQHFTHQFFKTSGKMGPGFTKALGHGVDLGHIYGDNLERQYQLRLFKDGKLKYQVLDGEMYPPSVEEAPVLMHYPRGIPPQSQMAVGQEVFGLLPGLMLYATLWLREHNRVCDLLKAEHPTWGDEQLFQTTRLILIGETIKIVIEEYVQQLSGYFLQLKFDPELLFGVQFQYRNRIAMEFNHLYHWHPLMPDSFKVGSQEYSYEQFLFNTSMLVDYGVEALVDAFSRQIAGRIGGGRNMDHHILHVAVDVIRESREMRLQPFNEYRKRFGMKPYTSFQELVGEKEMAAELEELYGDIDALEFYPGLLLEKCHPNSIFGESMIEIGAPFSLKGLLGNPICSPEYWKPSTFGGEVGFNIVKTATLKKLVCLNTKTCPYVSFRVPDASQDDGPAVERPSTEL

Turning to `Cc1nc(-c2ccc(C)s2)c(-c2ccc(S(N)(=O)=O)c(F)c2)o1`, the IC50 in experiment [1] came to 0.026 µM; in [2] it was 25 µM.

With `Cc1nc(-c2ccc(F)cc2)c(-c2ccc(S(N)(=O)=O)c(F)c2)o1`, the IC50 in experiment [1] was 0.04 µM; in experiment [2], 40 µM.

As to `Cc1nc(C2CCCCC2)c(-c2ccc(S(N)(=O)=O)c(O)c2)o1`, the IC50 in experiment [1] is 19.7 µM; in experiment [2] it was over 100 µM.

With `Cc1nc(C2CCCCC2)c(-c2ccc(S(N)(=O)=O)c(C)c2)o1`, the half-inhibitory concentration (IC50) in experiment [2] was over 100 µM.

As for `COc1cc(-c2oc(C)nc2C2CCCCC2)ccc1S(N)(=O)=O`, the IC50 in experiment [1] and in experiment [2] was over 100 µM throughout.

For the compound `Cc1nc(C2CCCCC2)c(-c2ccc(S(N)(=O)=O)c(Cl)c2)o1`, the IC50 in [2] is over 100 µM.

Consider `CC(C)c1nc(C2CCCCC2)c(-c2ccc(S(N)(=O)=O)c(F)c2)o1`, for which the IC50 in experiment [1] was determined as 0.6 µM; in experiment [2], 29.7 µM.

Turning to `CCc1nc(C2CCCCC2)c(-c2ccc(S(N)(=O)=O)c(F)c2)o1`, the IC50 in experiment [1] was found to be 0.12 µM; in experiment [2], 47 µM.

Regarding `Cc1nc(-c2ccc(C)s2)c(-c2ccc(S(N)(=O)=O)cc2)o1`, the IC50 in experiment [1] came out at 0.012 µM; in experiment [2] it was 1.8 µM.

Regarding `Cc1nc(C2CCCCC2)c(-c2ccc(S(N)(=O)=O)c(N)c2)o1`, the IC50 in experiment [1] is 0.93 µM; in experiment [2] it was over 100 µM.

For `Cc1ccc(-c2cc(C(F)(F)F)nn2-c2ccc(S(N)(=O)=O)cc2)cc1` [CELECOXIB], the median effective dose (ED50) with Rattus norvegicus [3] amounted to 2.8 mg/kg; in the experiment listed under Rattus norvegicus [5] it was 0.37 mg/kg. Also, the UD50 in the experiment with Rattus norvegicus [4] was over 200 mg/kg.

Turning to `COc1ccc2c(c1)c(CC(=O)O)c(C)n2C(=O)c1ccc(Cl)cc1` [INDOMETHACIN], the ED50 with Rattus norvegicus [6] was found to be 0.13 mg/kg; in the experiment on Rattus norvegicus [3] it was 1.6 mg/kg; in the experiment with Rattus norvegicus [7], 3.1 mg/kg; in the experiment on Rattus norvegicus [8], 1.4 mg/kg. The compound further came in with a UD50 in the experiment with Rattus norvegicus [4] of 3.4 mg/kg.

For `Cc1nc(C2CCCCC2)c(-c2ccc(S(N)(=O)=O)c(F)c2)o1` [TILMACOXIB], the figures for the IC50 in [1] and in experiment [2] were 0.085 µM and over 100 µM, respectively. For the same compound, in the experiment with Rattus norvegicus [9], the ED50 was 4.4 mg kg-1 [middle of 4 runs]. Further, the UD50 in the experiment on Rattus norvegicus [10] is over 300 mg/kg.

In general, IC50 refers to the concentration that inhibits the measured activity by half. Read a high IC50 as lower potency. The term ED50 denotes the dose at which the effect has come halfway, by size or by number of responders.
